One assay relates to s-MDA-MB-231. Kind of assay: Tumor volume in breast cancer animal model injected with cancer stem cells (S231). In kind it is in vivo, BALB/c nude mice. To be noted: for tumor volume: in mm³ (unit assumed). As to the method: (§1) In order to identify a therapeutic method effective against cancer stem cells, breast cancer animal models were constructed. For construction of the breast cancer animal models, each of breast cancer cells (p-MDA-MB-231 and p-MCF-7) and breast cancer stem cell lines (s-MDA-MB-231 and s-MCF-7) was cultured in vitro, and the cultured cells were injected into the upper left flank of 5-6-week-old BALB/c nude mice at a density of 1.0×10^7 cells/mouse. Then, the mice were housed at 22° C. under a 12-hr light/12-hr dark cycle for 7 days while they were fed with water and feed, thereby constructing breast cancer animal models.

Another assay has as its system p-MDA-MB-231. Description: Tumor volume in breast cancer animal model injected with ordinary cancer cells (P231). The assay is classed as in vivo, BALB/c nude mice. As for the experimental part: as §1
For assay [1], the system named is cancer stem cells. Kind of assay: Immunoblot analysis (Western blotting) of cancer stem cells under nutrient deprivation. As to conditions: 10 μM. In kind it is cell-based. As to the method: In order to examine whether apoptosis-related proteins are involved in apoptotic resistance which is the reason why the cancer stem cells show high viability under nutrient deprivation, each of p-MDA-MB-231, p-MCF-7, s-MDA-MB-231 and s-MCF-7 cell lines, cultured under glucose deprivation for 40 hours in the same manner as described in Example 2, was collected and subjected to immunoblot analysis. The collected cells were washed twice with chilled PBS (phosphate buffered saline) buffer, and lysed with RIPA buffer to isolate protein. For the next experiment, the amount of the isolated protein was measured by a BCA assay. 20 μg of the protein obtained from each of the cell lines was electrophoresed on 8-10% SDS-polyacrylamide gel and transferred to a PVDF membrane using electricity. The protein-transferred PVDP membranes were treated with 5% skim milk at room temperature for 1 hour, and then incubated with a primary antibody against each of caspase-3, caspase-7, Bcl-2 and beta-actin (control) at 4° C. for 16 hours. The PVDP membranes incubated with the antibodies were washed three times with TBST buffer to remove unbound primary antibodies, and were further incubated with HPR-conjugated secondary antibodies at room temperature for 1 hour. After completion of the incubation, the membranes were washed with TBST buffer to completely remove the secondary antibodies, and were treated with ECL buffer and incubated for 3 minutes, followed by exposure to Kodak X-OMAT AR Film. […]
(§2) In order to examine an effect which occurs when CaMK-2α signaling is inhibited, the cancer stem cells were treated with 10 μM of KN62 (1-[N,O-bis(5-isoquinolinesulfonyl)-N-methyl-L-tyrosyl]-4-phenylpiperazine) well known as an inhibitor of CaMK-2α, and then a TUNEL assay was performed in the same manner as described in Example 3.1 to examine apoptosis and DNA fragmentation. In addition, Western blotting was performed in the same manner as described in Example 3.2 to examine the expression of genes, and the viability of the cells was measured in the same manner as described in Example 2.
(In western blotting, separated proteins are transferred to a membrane and probed.)

In assay [2] the test system is cancer stem cells. Description: TUNEL assay (apoptosis, DNA fragmentation) in cancer stem cells under nutrient deprivation. The assay is classed as cell-based. As to conditions: 10 μM. As to the method: In order to examine whether the reason why cancer stem cells show high viability under nutrient deprivation is because of their resistance to apoptosis, each of p-MDA-MB-231, p-MCF-7, s-MDA-MB-231 and s-MCF-7 cell lines, cultured under glucose deprivation for 40 hours in the same manner as described in Example 2, was collected and subjected to a TUNEL assay. In the TUNEL assay, the collected cells were fixed with 4% paraformaldehyde solution for 48 hours, and then stained using a Terminal Deoxynucleotidyl Transferase dUTP Nick end Labeling (TUNEL) kit according to the manufacturer's protocol, and the fluorescence images of the cells were acquired with a fluorescence microscope and analyzed using Zeiss LSM Image Browser software program. […]
as §2

Assay [3] deals with cancer stem cells. Kind of assay: Extracellular Ca2+ concentration of cancer stem cells after PMCA or SERCA inhibition. In kind it is cell-based. To be noted: nutrient deprivation. The source says: In order to examine whether the calcium concentration regulatory ability of the cancer stem cells is changed when PMCA is inhibited under nutrient deprivation, the activity of PMCA and SERCA was inhibited by using caloxin (which is a calcium pump inhibitor) as an inhibitor of PMCA acting as Ca^2+-ATPase (calcium ATPase) in the plasma membrane and using thapsigargin which is an inhibitor of SERCA (sarco/endoplasmic reticulum Ca^2+-ATPase) acting as Ca^2+-ATPase (calcium ATPase), and then changes in the extracellular Ca^2+ concentrations of the cancer stem cells were measured.

Assay [4] relates to cancer stem cells. Description: Viability of cancer stem cells under nutrient deprivation after PMCA or SERCA inhibition. The assay is classed as cell-based. As to the method:
In order to compare the viabilities of cancer cells and cancer stem cells under glucose deprivation, each of p-MDA-MB-231, p-MCF-7, s-MDA-MB-231 and s-MCF-7 cell lines, prepared in the same manner as described in Example 1, was added to a 96-well plate at a concentration of 5×10^3 cells/100 μL and cultured to a confluence of about 70%, and then the medium was replaced with a glucose-deprived in RPMI-1640 medium containing 10% FBS, and the cells were further cultured for 3 days. At each of 0, 12, 24, 36, 48, 60 and 72 hours, the viability of each of the cell lines was determined by crystal violet staining and an MTT (3-(4,5-dimethylthiazol-2-yl)-2,5-diphenyltetrazolium bromide) assay. In order to examine whether the calcium concentration regulatory ability of the cancer stem cells is changed when PMCA is inhibited under nutrient deprivation, the activity of PMCA and SERCA was inhibited by using caloxin (which is a calcium pump inhibitor) as an inhibitor of PMCA acting as Ca^2+-ATPase (calcium ATPase) in the plasma membrane and using thapsigargin which is an inhibitor of SERCA (sarco/endoplasmic reticulum Ca^2+-ATPase) acting as Ca^2+-ATPase (calcium ATPase), and then changes in the extracellular Ca^2+ concentrations of the cancer stem cells were measured.

3 molecules from patent US20170312333A1, “Composition for Treating Cancer Stem Cells” (Industry-Academic Corporation Foundation, Yonsei University, priority 2014, published 2017) can be followed below.

With `O=CC[C@@H](O)[C@H](O)[C@H](O)CO` [2DG, 2-deoxyglucose], the tumor volume in the assay on s-MDA-MB-231 (S231, day 7, i.p. once a day, 2DG 500 mg/kg, metformin 250 mg/kg, caloxin 2al 200 mg/kg) turned out to be 228.5 ± 23; in the assay on s-MDA-MB-231 (S231, day 10, same dosing) it was 277.6 ± 21; in the assay with s-MDA-MB-231 (S231, day 13, same dosing), 474.4 ± 31; with s-MDA-MB-231 (S231, day 16, same dosing), 539.2 ± 33; with s-MDA-MB-231 (S231, day 19, same dosing) it was 638.2 ± 49; with s-MDA-MB-231 (S231, day 22, same dosing) it was 777.0 ± 35. The tumor volume with s-MDA-MB-231 (S231, day 25, same dosing) is given as 911.6 ± 35; with s-MDA-MB-231 (S231, day 28, same dosing) it was 1077.4 ± 68; with s-MDA-MB-231 (S231, day 31, same dosing) it was 1290.6 ± 72; with s-MDA-MB-231 (S231, day 34, same dosing), 1722.1 ± 69; with s-MDA-MB-231 (S231, day 37, same dosing), 2471.7 ± 81; in the assay on s-MDA-MB-231 (S231, day 40, same dosing) it was 3173.2 ± 105. For the same molecule, the tumor volume in the assay on s-MDA-MB-231 (S231, day 43, same dosing) was determined as 4065.2 ± 119; in the assay with p-MDA-MB-231 (P231, day 7, i.p. once a day, 2DG 500 mg/kg, metformin 250 mg/kg, caloxin 2al 200 mg/kg, in mm³ (unit assumed)), 219.1 ± 35; in the assay with p-MDA-MB-231 (P231, day 10, same dosing), 302 ± 49; in the assay with p-MDA-MB-231 (P231, day 13, same dosing, in mm³ (unit assumed)), 337.6 ± 47; in the assay on p-MDA-MB-231 (P231, day 16, same dosing, in mm³ (unit assumed)) it was 388.6 ± 47; in the assay with p-MDA-MB-231 (P231, day 19, same dosing, in mm³ (unit assumed)), 440.7 ± 45. Moreover, the tumor volume in the assay with p-MDA-MB-231 (P231, day 22, same dosing, in mm³ (unit assumed)) amounted to 513.4 ± 46; in the assay on p-MDA-MB-231 (P231, day 25, same dosing, in mm³ (unit assumed)), 621.4 ± 50; in the assay with p-MDA-MB-231 (P231, day 28, same dosing, in mm³ (unit assumed)), 834.4 ± 48; with p-MDA-MB-231 (P231, day 31, same dosing, in mm³ (unit assumed)) it was 1142.7 ± 50; in the assay on p-MDA-MB-231 (P231, day 34, same dosing, in mm³ (unit assumed)), 1547.4 ± 57; in the assay on p-MDA-MB-231 (P231, day 37, same dosing, in mm³ (unit assumed)), 1944.2 ± 64. Further, the tumor volume is given as 2359.0 ± 48 in the assay with p-MDA-MB-231 (P231, day 40, same dosing, in mm³ (unit assumed)) and 2866.1 ± 45 in the assay with p-MDA-MB-231 (P231, day 43, same dosing, in mm³ (unit assumed)). The “tumor volume compared to control group (in words)” value with s-MDA-MB-231 (cancer stem cell model) is listed as “slightly decreased”.

As for `CN([C@@H](Cc1ccc(OS(=O)(=O)c2cccc3cnccc23)cc1)C(=O)N1CCN(c2ccccc2)CC1)S(=O)(=O)c1cccc2cnccc12` [KN62, 1-[N,O-bis(5-isoquinolinesulfonyl)-N-methyl-L-tyrosyl]-4-phenylpiperazine], in the assay on cancer stem cells [1], the “expression of IP3R” value is “inhibited”, the “expression of SERCA2” value is given as “increased” and the “phosphorylation of NF-kB” value is reported as “did not occur”. Besides, the “apoptosis (TUNEL assay)” value with cancer stem cells [2] is reported as “inducing apoptosis”.

Regarding `C/C=C(/C)C(=O)O[C@H]1C(C)=C2[C@H]([C@@H]1OC(=O)CCCCCCC)[C@@](C)(OC(C)=O)C[C@H](OC(=O)CCC)[C@@]1(O)[C@H]2OC(=O)[C@@]1(C)O` [thapsigargin], the “extracellular calcium concentration of the cancer stem cells” value in the assay on cancer stem cells [3] is on record as “maintained at a high level”. Moreover, in the assay with cancer stem cells [4], the “viability of the cells” value is “also high”.
